According to ChEMBL document CHEMBL1201862, “PubChem BioAssay data set” (2004):
Active and inactive are the calls of the source.

How the values were obtained:
[1] = target: G-protein coupled receptor 35 (Homo sapiens, UniProt Q9HC97); assay: inhibition of zaprinast-stimulated GPR35 beta-arrestin translocation – imaging, U2OS, beta-arrestin-GFP, zaprinast agonist, primary screen (AID 2058); type: functional;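 also: antagonist potency meaning inhibition of agonist-induced arrestin redistribution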
[2] = target: Beta-lactamase (Pseudomonas aeruginosa, UniProt Q79MP6);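 also: biochemical dose-response test of metallo-beta-lactamase enzyme inhibition, read out by epi-absorbance; purified recombinant IMP-1 metallo-beta-lactamase with nitrocefin as substrate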
[3] = target: Beta-lactamase (Salmonella choleraesuis (strain SC-B67), UniProt Q5J463)
[4] = target: Keap1/Nrf2 (Homo sapiens, UniProt Q14145); assay: disruptors of Keap1 binding to Nrf2 peptide – biochemical, fluorescence polarization, cherry-picked samples, dose response (AID 588683)
[5] = system: Streptococcus sp. 'group A'; assay: Streptococcus pyogenes SK(-)GAS viability under kanamycin – luminescence, BacTiterGlo, confirmation, counter-screen for streptokinase expression inhibitor project, dose response (AID 1900); type: functional, organism-based
[6] = system: Streptococcus; assay: Luminescence Microorganism-Based Dose Response Follow up to Identify Compounds Cytotoxic to Streptococcus. [Related pubchem assays: 1677 (Project Summary), 1915, 1914, 1902 (Retest at Dose), 1900 (Counter Screen), 1662 (Primary HTS)]; type: functional, organism-based
[7] = target: T1, Streptokinase A (Streptococcus pyogenes serotype M1, UniProt P10520); assay: viability-normalized secreted streptokinase activity reduction – plasminogen activation absorbance, OD405, dose response (AID 1914); type: functional, Streptococcus pyogenes M1 GAS;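 also: secreted streptokinase activity via plasminogen activation per viability signal from cell pellet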
T1 sequence (P10520 whole entry): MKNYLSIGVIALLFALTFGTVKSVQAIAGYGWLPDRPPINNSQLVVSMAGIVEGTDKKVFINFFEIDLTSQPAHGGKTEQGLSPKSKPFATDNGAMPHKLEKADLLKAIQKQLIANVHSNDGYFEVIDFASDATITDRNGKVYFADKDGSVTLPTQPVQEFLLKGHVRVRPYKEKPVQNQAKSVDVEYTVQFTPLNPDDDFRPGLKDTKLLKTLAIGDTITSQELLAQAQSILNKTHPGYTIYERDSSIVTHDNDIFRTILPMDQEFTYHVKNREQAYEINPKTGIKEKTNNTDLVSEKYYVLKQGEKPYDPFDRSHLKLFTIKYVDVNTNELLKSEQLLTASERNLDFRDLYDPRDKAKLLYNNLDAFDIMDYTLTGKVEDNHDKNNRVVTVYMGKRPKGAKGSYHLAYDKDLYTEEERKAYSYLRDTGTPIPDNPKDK

[8] = target: T1, Streptokinase A; assay: Absorbance Microorganism-Based Dose Response Follow up to Identify Inhibitors of Streptokinase Expression. [Related pubchem assays: 1677 (Project Summary), 1915, 1914, 1902 (Retest at Dose), 1900 (Counter Screen), 1662 (Primary HTS)]; type: functional, Streptococcus pyogenes M1 GAS
[9] = system: Streptococcus; assay: GAS bacterial viability reduction – luminescence, BacTiter-Glo, strain UMAA2166, counter-screen for streptokinase expression inhibitor project, dose response (AID 2477); type: functional, organism-based
[10] = system: Streptococcus; assay: GAS UMAA2166 growth inhibition – luminescence, BacTiterGlo, counter-screen for streptokinase expression inhibitor project, dose response (AID 1915); type: functional, organism-based;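 also: potency for reduction of bacterial viability or growth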
[11] = Absorbance Microorganism-Based Dose Response Follow up to Identify Inhibitors of Streptokinase Expression. [Related pubchem assays: 1677 (Project Summary), 1915, 1914, 1902 (Retest at Dose), 1900 (Counter Screen), 1662 (Primary HTS)]
[12] = target: Melanin-concentrating hormone receptor 1 (Homo sapiens, UniProt Q99705); assay: Late-stage fluorescence-based counterscreen for antagonists of the G-protein coupled receptor 7 (GPR7): cell-based dose response assay to identify antagonists of the melanin-concentrating hormone receptor 1 (MCHR1). [Related pubchem assays (depositor defined):AID1861, AID1880, AID1952, AID2148, AID2251, AID2257, AID485339]; type: functional;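 also: stimulated with 30 nM MCH peptide agonist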
[13] = target: T2, Neuropeptides B/W receptor type 1 (Homo sapiens, UniProt P48145); assay: human NPBW1 receptor blockade, IC50 – cell-based, fluorescence, dose response, late-stage follow-up (AID 463251); type: functional
T2 sequence (P48145 whole entry): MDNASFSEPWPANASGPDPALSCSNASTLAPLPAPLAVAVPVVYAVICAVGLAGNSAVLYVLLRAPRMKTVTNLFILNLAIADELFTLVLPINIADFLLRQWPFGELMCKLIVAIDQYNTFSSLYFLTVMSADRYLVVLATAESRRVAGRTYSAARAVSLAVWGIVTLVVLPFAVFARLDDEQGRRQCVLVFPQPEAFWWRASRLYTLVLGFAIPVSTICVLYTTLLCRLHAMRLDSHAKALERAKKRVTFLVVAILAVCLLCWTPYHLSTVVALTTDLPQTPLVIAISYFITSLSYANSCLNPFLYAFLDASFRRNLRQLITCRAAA

[14] = system: J774.A1; assay: Confirmation of image-based Screening Assay for Inhibitors of Phagocytosis. [Related pubchem assays (depositor defined):AID1029, AID1643]; type: functional, cell-based; settings: Mus musculus
[15] = luciferase reporter signal suppression in cells – H4 neuroglioma cells, luminescence, dose response (AID 1990); type: functional, cell-based
[16] = luciferase reporter signal reduction – luminescence, H4-C neuroglioblastoma cells, dose response (AID 2458); type: functional, cell-based;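 also: H4 neuroglioblastoma cells stably carrying a luciferase reporter gene fusion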
[17] = system: BJ; assay: BJ-TERT fibroblast viability loss – cell-based, RAS-independent, luminescence, dose response (AID 1933); type: functional; settings: Homo sapiens
[18] = cells; type: functional, cell-based
[19] = Luminescence Cell-Based Dose Response HTS to Identify Inhibitors of 5'UTR Stem-Loop Driven Prion Protein mRNA Translation in H4 Neuroglioblastoma Cells. [Related pubchem assays: 1827 (Project Summary), 1813 (Primary HTS)]; type: functional
[20] = alpha-synuclein stem-loop luciferase translation blockers – H4 neuroglioma cells, luminescence, confirmation (AID 1988); type: functional, cell-based
[21] = system: BJ; assay: cells; type: functional, cell-based; settings: Homo sapiens
[22] = Luminescence-based dose response cell-based high throughput screening assay for cytotoxic compounds using the IEC-6 intestinal epithelial cell line. [Related pubchem assays: 1858 (Summary AID.), 1825 (Counterscreen.), 1907 (Confirmation screen.)]; type: functional
[23] = system: BJ; assay: BJ-TERT-LT-ST fibroblast viability loss – cell-based, RAS-independent, luminescence, dose response (AID 1935); type: functional; settings: Homo sapiens;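 also: BJ fibroblasts immortalized with TERT plus LT and ST oncogenes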
[24] = DRD fibroblast viability loss – cell-based, non-viral oncogenic, luminescence, dose response (AID 1934); type: functional; settings: Homo sapiens
[25] = alpha-synuclein stem-loop translation blockers – luminescence, H4 neuroglioblastoma cells, dose confirmation, confirmation (AID 2454); type: functional, cell-based;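 also: H4 neuroglioblastoma cells carrying an alpha-synuclein 5'UTR luciferase reporter; potency for inhibition of the luciferase signal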
[26] = target: Metabotropic glutamate receptor 4 (Rattus norvegicus, UniProt P31423); assay: Modulation of the Metabotropic Glutamate Receptor mGluR4: Rat PAM Potency. [Related pubchem assays (depositor defined):AID2437, AID2807]; type: functional
[27] = target: Peroxisome proliferator-activated receptor gamma/Nuclear receptor coactivator 1 (Homo sapiens, UniProt P37231); assay: (§1) TR-FRET dose response biochemical High Throughput Screening assay for agonists of the steroid receptor coactivator 1 (SRC-1) recruitment by the peroxisome proliferator-activated receptor gamma (PPAR gamma): non-selective agonists. [Related pubchem assays (depositor defined):AID1300, AID1808, AID504735, AID631]; type: protein assay
[28] = target: Bcl-2-like protein 10 (Homo sapiens, UniProt Q9HD36); assay: Bcl-B/TR3 peptide binding disruption – biochemical, fluorescence polarization, FITC-TR3 peptide, selectivity assay for Bfl-1 inhibitor project, primary screen (AID 748);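 also: fluorescence polarization from a fluorescein-labelled TR3 peptide binding purified Bcl-B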
[29] = target: Peroxisome proliferator-activated receptor gamma/Nuclear receptor coactivator 3 (Homo sapiens, UniProt P37231); assay: as §1, with “3 (SRC-3)” for “1 (SRC-1)”, “assays: 1301 (Confirmation screen.), 1048 (Primary screen.)]” for “assays (depositor defined):AID1300, AID1808, AID504735, AID631]”; type: functional
[30] = target: Estrogen receptor beta (Homo sapiens, UniProt Q92731);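 also: recombinant ER-beta bound to coactivator SRC1 peptide in presence of estradiol agonist; inhibitors block coactivator peptide binding and lower the FRET signal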
[31] = target: Peroxisome proliferator-activated receptor gamma/Nuclear receptor coactivator 2 (Homo sapiens, UniProt P37231); assay: TR-FRET dose response biochemical High Throughput Screening assay for agonists of the steroid receptor coactivator 2 (SRC-2) recruitment by the peroxisome proliferator-activated receptor gamma (PPAR gamma): non-selective agonists. [Related pubchem assays: 1297, 1032 ]; type: functional
[32] = target: Mitogen-activated protein kinase 10 (Homo sapiens, UniProt P53779); assay: Dose response biochemical screening assay for inhibitors of c-Jun N-Terminal Kinase 3 (JNK3). [Related pubchem assays: 746 ]
[33] = target: Lysosomal acid glucosylceramidase (Homo sapiens, UniProt P04062); assay: Dose response cell-based high throughput screening assay to identify enhancers of beta-glucosidase activity. [Related pubchem assays: 784 ]; type: functional
[34] = target: Cytochrome P450 2C19 (Homo sapiens, UniProt P33261); assay: Cytochrome panel assay with activity outcomes. Panel member name: p450-cyp2c19 Compounds with AC50 equal or less than 10 uM are considered active; type: functional
[35] = target: Cytochrome P450 2D6 (Homo sapiens, UniProt P10635);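 also: CYP2D6 member of a cytochrome P450 panel assay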
[36] = target: Cytochrome P450 2C9 (Homo sapiens, UniProt P11712)
[37] = NIH-3T3 fibroblast cytotoxicity, dose response, cytotoxicity control, cell-based, fluorescence, Alamar Blue, secondary assay (AID 2327); type: functional;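 also: NIH-3T3 mouse fibroblasts cultured with fluconazole at 8 µg/mL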
[38] = fluconazole-exposed Candida albicans growth modulators – fluorescence, retest, confirmation (AID 2467); type: functional, cell-based
[39] = target: NACHT, LRR and PYD domains-containing protein 3 (Homo sapiens, UniProt Q96P20); assay: NALP3 inhibitors in yeast, dose response, luminescent (AID 488799); type: functional
[40] = target: Transitional endoplasmic reticulum ATPase (Homo sapiens, UniProt P55072, C522A); assay: C522A mutant p97 ATPase inhibitors, dose response, counter-screen for p97 inhibitor project, biochemical, luminescence (AID 1544)
[41] = target: Transitional endoplasmic reticulum ATPase (Homo sapiens, UniProt P55072); assay: p97 ATPase inhibitors, dose response, biochemical (AID 1534)
[42] = target: Induced myeloid leukemia cell differentiation protein Mcl-1 (Homo sapiens, UniProt Q07820); type: functional
[43] = target: Troponin, cardiac muscle (Homo sapiens, UniProt P19429+P45379+P63316); assay: compounds desensitizing RTF to calcium – biochemical, fluorescence, cardiac regulated thin filaments, triplicate IC50, dose response (AID 504742); type: protein-complex assay
[44] = target: Glucose-6-phosphate 1-dehydrogenase (Homo sapiens, UniProt P11413); assay: inhibition of Homo sapiens G6PD, dose series – biochemical, fluorescence, selectivity assay for P. falciparum G6PD inhibitor project, dose response (AID 504792); type: functional
[45] = system: HeLa; assay: viability loss in HeLa cells – cell-based, 24 h, cherry-picked samples, cytotoxicity control, dose response (AID 504726); type: functional; settings: Homo sapiens;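 also: potency for cytotoxicity as loss of luminescence signal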
[46] = target: ORF 73 (Human herpesvirus 8, UniProt O40947); assay: KSHV LANA DNA-binding disruption – biochemical, fluorescence polarization, cherry-picked samples, dose response (AID 504725); parameters: species or system Human gammaherpesvirus 8;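 also: fluorescence polarization of a labeled DNA duplex reporting LANA DNA binding; potency is for inhibitors that block LANA binding to the DNA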
[47] = target: Genome polyprotein (dengue virus type 2, UniProt P29990); assay: flavivirus cap methylation enzyme inhibition – biochemical, confirmation dose response, primary screen (AID 588689); type: functional
Chain of Genome polyprotein (P29990 2492-3391 limits assumed): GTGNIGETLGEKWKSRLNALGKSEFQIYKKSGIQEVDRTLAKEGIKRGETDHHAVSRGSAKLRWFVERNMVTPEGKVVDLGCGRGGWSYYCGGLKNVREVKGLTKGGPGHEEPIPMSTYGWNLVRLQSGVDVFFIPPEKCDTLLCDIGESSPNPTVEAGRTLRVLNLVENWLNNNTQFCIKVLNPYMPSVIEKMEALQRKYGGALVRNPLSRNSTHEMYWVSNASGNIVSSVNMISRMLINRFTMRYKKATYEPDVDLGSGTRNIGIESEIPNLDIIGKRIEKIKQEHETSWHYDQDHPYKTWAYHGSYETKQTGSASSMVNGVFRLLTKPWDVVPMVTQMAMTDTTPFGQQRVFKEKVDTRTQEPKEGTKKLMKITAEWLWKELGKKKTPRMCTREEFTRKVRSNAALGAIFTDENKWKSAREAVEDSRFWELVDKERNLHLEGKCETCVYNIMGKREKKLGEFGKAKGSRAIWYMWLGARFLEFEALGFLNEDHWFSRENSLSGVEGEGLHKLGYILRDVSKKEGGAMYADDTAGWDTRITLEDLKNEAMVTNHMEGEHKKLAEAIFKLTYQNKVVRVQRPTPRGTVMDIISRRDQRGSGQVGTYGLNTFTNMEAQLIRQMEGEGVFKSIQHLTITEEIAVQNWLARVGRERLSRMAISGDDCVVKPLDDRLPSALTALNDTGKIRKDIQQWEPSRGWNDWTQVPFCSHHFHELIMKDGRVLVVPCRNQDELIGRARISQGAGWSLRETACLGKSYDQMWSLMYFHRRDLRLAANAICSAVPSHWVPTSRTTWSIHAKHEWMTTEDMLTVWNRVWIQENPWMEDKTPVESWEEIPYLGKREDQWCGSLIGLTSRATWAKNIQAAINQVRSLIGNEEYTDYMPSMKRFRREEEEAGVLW

Chain of Mitogen-activated protein kinase 10 (P53779 whole entry): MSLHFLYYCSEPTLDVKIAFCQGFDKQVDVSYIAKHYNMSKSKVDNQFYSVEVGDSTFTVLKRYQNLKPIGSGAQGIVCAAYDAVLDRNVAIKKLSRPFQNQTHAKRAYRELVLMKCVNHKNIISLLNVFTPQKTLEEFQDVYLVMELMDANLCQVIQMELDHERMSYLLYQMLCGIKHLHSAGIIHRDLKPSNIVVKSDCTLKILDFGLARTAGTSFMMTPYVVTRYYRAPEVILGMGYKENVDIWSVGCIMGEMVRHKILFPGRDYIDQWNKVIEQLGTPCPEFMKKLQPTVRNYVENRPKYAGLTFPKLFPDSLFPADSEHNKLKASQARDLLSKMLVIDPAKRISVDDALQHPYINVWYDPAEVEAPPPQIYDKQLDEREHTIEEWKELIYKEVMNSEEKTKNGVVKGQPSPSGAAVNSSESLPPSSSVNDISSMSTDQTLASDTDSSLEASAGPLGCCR
Chain of Cytochrome P450 2C19 (P33261 whole entry): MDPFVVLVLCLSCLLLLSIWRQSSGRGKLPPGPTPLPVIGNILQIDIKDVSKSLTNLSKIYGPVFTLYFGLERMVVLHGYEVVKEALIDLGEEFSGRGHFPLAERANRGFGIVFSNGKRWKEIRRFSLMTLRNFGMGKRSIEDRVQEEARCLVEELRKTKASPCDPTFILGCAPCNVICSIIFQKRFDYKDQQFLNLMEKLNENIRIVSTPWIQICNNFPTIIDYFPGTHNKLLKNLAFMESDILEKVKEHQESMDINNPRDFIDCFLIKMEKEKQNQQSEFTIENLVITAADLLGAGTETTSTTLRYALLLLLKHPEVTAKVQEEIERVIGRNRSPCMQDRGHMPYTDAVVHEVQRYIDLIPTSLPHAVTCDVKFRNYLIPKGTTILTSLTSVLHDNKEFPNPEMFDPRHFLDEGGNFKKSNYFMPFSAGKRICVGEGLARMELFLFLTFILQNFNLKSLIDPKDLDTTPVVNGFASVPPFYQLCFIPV
Chain of ORF 73 (O40947 whole entry): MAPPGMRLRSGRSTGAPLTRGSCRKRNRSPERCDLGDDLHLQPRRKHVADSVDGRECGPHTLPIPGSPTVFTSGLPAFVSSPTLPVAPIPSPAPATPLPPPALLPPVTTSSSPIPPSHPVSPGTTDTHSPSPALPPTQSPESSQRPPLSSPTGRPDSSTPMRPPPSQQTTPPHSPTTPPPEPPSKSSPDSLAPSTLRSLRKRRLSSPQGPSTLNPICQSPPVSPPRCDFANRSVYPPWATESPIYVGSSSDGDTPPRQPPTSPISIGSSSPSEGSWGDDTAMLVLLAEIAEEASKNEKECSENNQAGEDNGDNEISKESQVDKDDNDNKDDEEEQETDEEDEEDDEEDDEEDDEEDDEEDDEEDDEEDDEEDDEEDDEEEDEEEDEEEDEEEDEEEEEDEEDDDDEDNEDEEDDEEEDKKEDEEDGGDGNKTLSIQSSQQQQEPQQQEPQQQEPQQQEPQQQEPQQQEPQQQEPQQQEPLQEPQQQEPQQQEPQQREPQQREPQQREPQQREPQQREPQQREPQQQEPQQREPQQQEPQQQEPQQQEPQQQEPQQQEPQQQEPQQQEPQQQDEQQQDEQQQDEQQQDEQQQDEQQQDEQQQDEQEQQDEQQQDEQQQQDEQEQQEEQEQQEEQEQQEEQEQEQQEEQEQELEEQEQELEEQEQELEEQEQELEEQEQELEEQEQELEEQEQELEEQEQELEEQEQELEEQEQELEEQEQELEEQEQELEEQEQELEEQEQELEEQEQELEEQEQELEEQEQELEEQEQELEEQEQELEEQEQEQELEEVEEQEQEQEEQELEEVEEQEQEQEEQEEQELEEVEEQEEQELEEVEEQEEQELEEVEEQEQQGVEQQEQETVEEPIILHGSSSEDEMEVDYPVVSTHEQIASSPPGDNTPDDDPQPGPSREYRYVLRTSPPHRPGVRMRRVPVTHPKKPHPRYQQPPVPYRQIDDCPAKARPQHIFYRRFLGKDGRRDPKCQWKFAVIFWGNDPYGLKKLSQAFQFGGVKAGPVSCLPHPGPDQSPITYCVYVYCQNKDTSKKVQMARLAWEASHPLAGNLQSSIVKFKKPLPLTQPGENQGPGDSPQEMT
Chain of Keap1/Nrf2 (Q16236 whole entry): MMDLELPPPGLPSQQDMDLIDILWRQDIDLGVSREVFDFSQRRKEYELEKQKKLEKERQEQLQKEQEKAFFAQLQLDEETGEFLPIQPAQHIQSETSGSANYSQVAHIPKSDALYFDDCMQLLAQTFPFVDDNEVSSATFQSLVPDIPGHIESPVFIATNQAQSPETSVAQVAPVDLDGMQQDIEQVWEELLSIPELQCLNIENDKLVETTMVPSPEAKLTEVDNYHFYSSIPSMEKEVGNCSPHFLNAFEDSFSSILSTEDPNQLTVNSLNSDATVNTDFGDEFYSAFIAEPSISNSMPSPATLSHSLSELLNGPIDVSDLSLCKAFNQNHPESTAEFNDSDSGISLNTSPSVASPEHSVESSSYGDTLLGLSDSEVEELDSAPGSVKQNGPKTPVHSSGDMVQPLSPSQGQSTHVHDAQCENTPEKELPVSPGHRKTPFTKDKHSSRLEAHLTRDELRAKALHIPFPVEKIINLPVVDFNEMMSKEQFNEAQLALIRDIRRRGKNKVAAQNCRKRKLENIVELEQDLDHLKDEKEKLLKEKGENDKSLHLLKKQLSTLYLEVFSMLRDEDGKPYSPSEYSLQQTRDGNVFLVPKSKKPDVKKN
Chain of Keap1/Nrf2 (Q14145 whole entry): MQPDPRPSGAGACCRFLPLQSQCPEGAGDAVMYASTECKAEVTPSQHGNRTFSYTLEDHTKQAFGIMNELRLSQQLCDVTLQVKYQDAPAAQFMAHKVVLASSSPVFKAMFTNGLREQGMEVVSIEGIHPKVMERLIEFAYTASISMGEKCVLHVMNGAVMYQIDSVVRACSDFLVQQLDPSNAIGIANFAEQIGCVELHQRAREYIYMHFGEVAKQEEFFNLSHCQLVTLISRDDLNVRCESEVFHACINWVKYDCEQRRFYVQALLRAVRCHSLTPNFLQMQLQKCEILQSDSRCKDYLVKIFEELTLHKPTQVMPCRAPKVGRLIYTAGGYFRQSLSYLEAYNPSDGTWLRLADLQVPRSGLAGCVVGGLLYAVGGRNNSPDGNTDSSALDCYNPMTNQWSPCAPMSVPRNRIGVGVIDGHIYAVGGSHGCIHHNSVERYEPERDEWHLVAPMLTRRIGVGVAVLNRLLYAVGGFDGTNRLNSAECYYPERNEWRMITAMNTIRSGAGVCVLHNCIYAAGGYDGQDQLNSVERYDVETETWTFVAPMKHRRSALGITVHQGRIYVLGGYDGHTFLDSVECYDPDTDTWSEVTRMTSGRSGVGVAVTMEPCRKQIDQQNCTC
Chain of Beta-lactamase (Salmonella choleraesuis (strain SC-B67), UniProt Q5J463) (Q5J463 whole entry): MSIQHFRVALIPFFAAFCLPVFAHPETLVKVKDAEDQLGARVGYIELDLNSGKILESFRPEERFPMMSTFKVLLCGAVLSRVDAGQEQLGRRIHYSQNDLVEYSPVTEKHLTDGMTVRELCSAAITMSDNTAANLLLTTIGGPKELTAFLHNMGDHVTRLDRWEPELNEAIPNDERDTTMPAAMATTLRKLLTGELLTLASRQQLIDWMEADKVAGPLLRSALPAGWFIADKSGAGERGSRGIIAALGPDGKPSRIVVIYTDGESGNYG
Chain of Estrogen receptor beta (Q92731 whole entry): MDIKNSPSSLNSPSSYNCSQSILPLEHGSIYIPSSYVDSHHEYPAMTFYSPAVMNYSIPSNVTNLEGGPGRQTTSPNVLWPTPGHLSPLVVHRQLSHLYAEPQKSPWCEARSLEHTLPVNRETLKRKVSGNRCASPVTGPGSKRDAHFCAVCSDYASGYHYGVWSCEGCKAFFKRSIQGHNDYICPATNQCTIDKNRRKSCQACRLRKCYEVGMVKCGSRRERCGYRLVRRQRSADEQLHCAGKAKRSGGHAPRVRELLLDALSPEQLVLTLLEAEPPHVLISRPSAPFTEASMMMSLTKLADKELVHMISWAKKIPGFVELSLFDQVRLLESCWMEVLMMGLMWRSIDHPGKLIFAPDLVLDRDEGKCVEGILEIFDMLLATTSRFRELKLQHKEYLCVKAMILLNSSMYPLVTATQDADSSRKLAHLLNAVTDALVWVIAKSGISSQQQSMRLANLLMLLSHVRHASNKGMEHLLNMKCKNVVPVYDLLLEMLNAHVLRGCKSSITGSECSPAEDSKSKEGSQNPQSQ

Compound: O=c1cc(C(F)(F)F)c2cc3c4c(c2o1)CCCN4CCC3
- IC50 [1]: 1.37 µM (active)
- IC50 [2]: 78.2 µM (inactive)
- IC50 [3]: 5.57 µM (active)
- AC50 [4]: 2.8 µM (active)

Compound: CCCOc1ccc(-c2nc(OC)c3ccccc3n2)cc1
- EC50 [5]: 17.9 µM (active)
- EC50 [6]: > 500 µM (not active)
- EC50 [7]: 6.02 µM (active)
- EC50 [8]: 3.83 µM (active)
- EC50 [9]: > 500 µM (not active)
- EC50 [10]: > 150 µM (not active)
- EC50 [11]: 4.03 µM (active)

Compound: COC(=O)c1ccc(-n2ncc(Cl)c(Oc3ccc(OC)cc3)c2=O)cc1
- IC50 [12]: > 20 µM (inactive)
- IC50 [13]: 4.1 µM (active)

Compound: COc1ccccc1/C=C/C(=O)OCC(=O)Nc1cc(C(F)(F)F)ccc1N1CCOCC1
- IC50 [14]: > 25 µM (inactive)

Compound: COc1cc(-c2noc(C)c2/C=C/c2ccc(N)cc2)cc(OC)c1OC
- EC50 [15]: < 0.1 µM (active)
- EC50 [16]: 0.509 µM (active)
- EC50 [17]: 0.344 µM (active)
- EC50 [18]: 0.277 µM (active)
- EC50 [19]: < 0.1 µM (active)
- EC50 [20]: < 0.1 µM (active)
- EC50 [21]: 0.469 µM (inconclusive)
- IC50 [22]: 0.964 µM (active)
- EC50 [23]: 0.38 µM (inconclusive)
- EC50 [24]: 0.362 µM (active)
- EC50 [25]: 0.335 µM (active)

Compound: O=C(Nc1ccc(N2C(=O)[C@H]3CCCC[C@@H]3C2=O)c(Cl)c1)c1ccccn1
- EC50 [26]: 0.65 µM (active)

Compound: CC(=O)c1sc2nc(SCC(=O)N3CCCCC3)[nH]c(=O)c2c1C
- EC50 [27]: > 79.4 µM (inactive)
- IC50 [28]: > 100 µM (inactive)
- EC50 [29]: > 79.4 µM (not active)
- IC50 [30]: 14.6 µM (active)
- EC50 [31]: > 79.4 µM (not active)
- IC50 [32]: > 93.1 µM (not active)

Compound: Br.Brc1ccc(C2=Nn3c(nnc3-c3cccnc3)SC2)s1
- EC50 [33]: > 50 µM (not active)
- AC50 [34]: inconclusive
- AC50 [35]: 4.47 µM (inconclusive)
- AC50 [36]: 22.4 µM (inconclusive)

Compound: c1ccc(Sc2cccc3ccccc23)c(CNC2=NCCN2)c1
- EC50 [37]: > 150 µM (inactive)
- EC50 [38]: 3.8 µM (active)
- IC50 [39]: 11.7 µM (active)

Compound: O=C(O[C@@H]1OC2COC(=O)c3cc(O)c(O)c(O)c3-c3c(cc(O)c(O)c3O)C(=O)O[C@@H]([C@H]1O)[C@@H]2O)c1cc(O)c(O)c(O)c1
- IC50 [40]: > 50 µM (not active)
- IC50 [41]: 4.2 µM (active)
- IC50 [42]: 4.48 µM (active)
- IC50 [43]: 0.677 µM (active)

Compound: O=C1C=CC2=C3c4cc(O)c(O)cc4CC3(O)COC2=C1O (stereo not drawn)
- IC50 [44]: > 80 µM (inactive)
- AC50 [45]: 179 µM (active)
- AC50 [46]: 40.3 µM (active)
- IC50 [43]: 16.6 µM (inactive)
- IC50 [47]: 26.5 µM (active)
